Data published in patent US20240299484A1, “DILEUCINE COMPOSITIONS AND METHODS OF USE THEREOF” (Ingenious Ingredients, LP, priority 2023, published 2024).
Marks after values point to notes of the source that are not given here.

Assays:
Format in all cases: in vivo, Swiss Albino mice
[1] = tested on: high-density lipids (HDL); experiment: Blood lipids: HDL; settings: for HDL Change over control [%]: vs Exercise Control, 28 days
Method: (§1) Eight 8-week-old male Swiss Albino mice per experimental group were housed in an animal room at a constant temperature (22±3° C.) and humidity (30%-70%) under a 12:12 h light-dark cycle with standard laboratory diet (Purina 5L79, Rat and Mouse 18% protein; PMI Nutrition International, Brentwood, MO, USA). Distilled water was provided ad libitum. All animal experiments were reviewed and approved by the Institutional Animal Ethical Committee (IAEC) of Radiant Research Services Pvt. Ltd (Bangalore, India). All research was conducted in accordance with the guidelines of the committee for the purpose of control and supervision of experiments on animals (CPCSEA Registration Number-1803/PO/RcBi/S/2015/CPCSEA).
(§2) After one week of acclimation, the animals were randomly divided by body weight into different groups (n=8 per group in each test) for oral treatment once a day, at approximately same time each day (+1 hour), for 28 consecutive days: (1) vehicle control; (2) paraxanthine (3) dileucine; (4) paraxanthine+dileucine; (5) L-arginine; (6) L-arginine+dileucine; (7) L-citrulline; and (8) L-citrulline+dileucine. The dose administered to the mice was calculated using US Food and Drug Administration for human equivalence doses (HED), assuming a human weight of 60 kg. The following HED were used in this study: 2,000 mg dileucine (RAMPS™, Ingenious Ingredients, L.P., Lewisville, TX, USA; mouse 411 mg/kg bw), 100 mg paraxanthine, (ENFINITY™, Ingenious Ingredients, L.P Lewisville, TX, USA; mouse dose: 20.5 mg/kg bw/day); 3,000 mg L-arginine (Nanjing Nutrabuilding Bio-tech Co., LTD., No. 270 Jiqingmen Strect, Suning Huigu, Building E6, Room 2105, Nanjing, China 210017; mouse 616.55 mg/kg bw), 3,000 mg L-citrulline (Nanjing Nutrabuilding Bio-tech Co., LTD., No. 270 Jiqingmen Street, Suning Huigu, Building E6, Room 2105, Nanjing, China 210017; mouse 616.55 mg/kg bw). 0.5% Carboxy Methyl Cellulose sodium was used as vehicle and the test item formulations were prepared daily. Dosing was conducted via oral gavage using disposable polypropylene syringes with sterilized stainless steel gavage tubes. The food intake and water consumption were monitored daily, and BW was recorded weekly. The last dose on day 28 was given 1 hour prior to testing.
(§3) All animals were euthanized by 95% CO2 after 28 days of following their assigned treatment. Blood was collected immediately after euthanization by the retro-orbital route and was immediately centrifuged at 1500×g for 10 min at 4° C. before having all serum transferred into cryogenic tubes and stored at −80° C.
(§4) Serum and plasma samples were separated by centrifuging the blood at 8000 rpm for 10 mins and analyze the below mentioned biomarkers, Biomarkers: TC, TG, LDL and HDL, CRP, Serum lactate, Ammonia, Glucose, NO, IL-2, IL-6, IL-10. Blood was collected in EDTA tubes for below mentioned biomarkers, Immune health Biomarkers (T helper subsets): TH1, TH2, TH17, Tfh, iTreg.

[2] = tested on: low-density lipids (LDL); experiment: Blood lipids: LDL; settings: for LDL: after 28 days of supplementation, mice, n = 8; for LDL Change over control [%]: vs Exercise Control, 28 days
Method: as §1, §2, §3, §4

[3] = tested on: IL-2; experiment: Inflammatory markers: IL-2; settings: for IL-2 Change over control [%]: vs Exercise Control, 28 days
Method: as §1, §2, §3, §4

[4] = tested on: IL-6; experiment: Inflammatory markers: IL-6; settings: for IL-6 Change over control [%]: vs Exercise Control, 28 days
Method: as §1, §2, §3, §4

[5] = tested on: total cholesterol (TC); experiment: Blood lipids: total cholesterol; settings: for TC / TC [mg/dl]: after 28 days of supplementation, mice, n = 8; for TC Change over control [%]: vs Exercise Control, 28 days
Method: as §1, §2, §3, §4

[6] = tested on: TH1; experiment: Immune health biomarkers (T helper subsets): TH1; settings: for TH1(%): T helper subset in blood after 28 days, mice, n = 8; for TH1 Change over control [%]: vs Exercise Control, 28 days
Method: (§5) PMI Nutrition International, Brentwood, MO, USA). Distilled water was provided ad libitum. All animal experiments were reviewed and approved by the Institutional Animal Ethical Committee (IAEC) of Radiant Research Services Pvt. Ltd (Bangalore, India). All research was conducted in accordance with the guidelines of the committee for the purpose of control and supervision of experiments on animals (CPCSEA Registration Number-1803/PO/[…]). […] (1) vehicle control; […] (4) paraxanthine+dileucine; […] The dose administered to the mice was calculated using US Food and Drug Administration for human equivalence doses (HED), assuming a human weight of 60 kg. […] Dosing was conducted via oral gavage using disposable polypropylene syringes with sterilized stainless steel gavage tubes. The food intake and water consumption were monitored daily, and BW was recorded weekly. The last dose on day 28 was given 1 hour prior to testing. Serum and plasma samples were separated by centrifuging the blood at 8000 rpm for 10 mins and analyze the below mentioned biomarkers, Biomarkers: TC, TG, LDL and HDL, CRP, Serum lactate, Ammonia, Glucose, NO, IL-2, IL-6, IL-10. Blood was collected in EDTA tubes for below mentioned biomarkers, Immune health Biomarkers (T helper subsets): […]

[7] = Treadmill exercise / endurance test; parameters: Percentage Increase over control (number of shocks) / Percentage Increase over control (time on shock zone) / Percentage Increase over control (distance travelled): concentration or dose not given beside the values; settings: for Distance travelled (m) by mice during treadmill exercise Day −0 / No. of shocks during treadmill exercise Day −0 / Time spent on shock zone during excercise [sec] Day −0: Day −0 (baseline), n = 8, mice; for No. of shocks during treadmill exercise Day −28 / Time spent on shock zone during excercise [sec] Day −28: Day −28, oral once a day for 28 days; for Distance travelled (m) by mice during treadmill exercise Day −28: Day −28, until exhaustion, oral once a day for 28 days; for Distance Increase over Day −0 / No of Shocks Decrease over Day −0 / Time spent on shock zone over Day −0: Day −28 minus Day −0; for Percentage Increase over control (time on shock zone): change vs Exercise Control; for Percentage Increase over control (time on shock zone) / Percentage Increase over control (number of shocks) / Percentage Increase over control (distance travelled): 28 days; for Percentage Increase over control (number of shocks): decrease in shocks vs Exercise Control; for Percentage Increase over control (distance travelled): increase vs Exercise Control
Method: as §1, §2
During the treatment period, exercise training was completed using a motorized treadmill (Exer 3/6, Columbus Instruments international, OH, USA) at a moderate intensity of 20 cm/sec as maximal running speed, an incline of ten degrees and a shock intensity of 0.2 mA, for ten minutes. The speed of the treadmill was manually adjusted by increasing the belt speed by 5 cm/sec every two minutes throughout the total duration of ten minutes. All animals were adapted to this procedure daily 60 minutes after dosing for five days in a week during the treatment period.
On 28th day of each respective treatment, all animals were subjected to a muscle endurance test. Muscle endurance was accomplished on a motorized treadmill at a low to moderate intensity of 5-50 cm/sec as maximal running speed, an incline of ten degrees and a shock intensity of 0.2 mA, with the belt speed being increased by 5 cm/sec every two minutes until it reaches 50 cm/sec. Animals were subjected to the treadmill test until exhaustion. Distance traveled (m) was measured as a marker of exercise performance.

[8] = tested on: TH2; experiment: Immune health biomarkers (T helper subsets): TH2; settings: for TH2(%): T helper subset in blood after 28 days, mice, n = 8; for TH2 Change over control [%]: vs Exercise Control, 28 days
Method: as §5

[9] = after 28 days of supplementation, mice, n = 8
[10] = after 28 days of supplementation and exercise, mice, n = 8

Compound | HDL Change over control [%] [1] | LDL [2] | LDL Change over control [%] [2] | IL-2 Change over control [%] [3] | IL-6 Change over control [%] [4] | TC Change over control [%] [5] | TH1(%) [6] | TH1 Change over control [%] [6] | Distance travelled (m) by mice during treadmill exercise Day −0 [7] | No. of shocks during treadmill exercise Day −0 [7] | Time spent on shock zone during excercise [sec] Day −0 [7] | No. of shocks during treadmill exercise Day −28 [7] | Time spent on shock zone during excercise [sec] Day −28 [7] | Distance travelled (m) by mice during treadmill exercise Day −28 [7] | Distance Increase over Day −0 [7] | No of Shocks Decrease over Day −0 [7] | Time spent on shock zone over Day −0 [7] | Percentage Increase over control (time on shock zone) [7] | Percentage Increase over control (number of shocks) [7] | Percentage Increase over control (distance travelled) [7] | further results
CC(C)C[C@H](NC(=O)[C@@H](N)CC(C)C)C(=O)O [Dileucine, L-Leucyl-L-leucine] | 8% | 42.05 mg/dL | −3% | 24% | −7% | −6% | 58.86*** % | −37% | 38.88 m | 27.63 | 91 s | 13*** | 31.88*** sec | 328.5*** m | 289.62 m | −14.63 | -59.12 s | 94% | 86% | 109% | HDL [mg/dl] [1, 9]: 37.63* mg/dl; IL-2 (ng/L) [3, 10]: 46.4*** ng/L; IL-6 (pg/ml) [4, 10]: 343** pg/ml; TC [5]: 93.3 mg/dL; TH2(%) [8]: 53.68*** %; TH2 Change over control [%] [8]: 368%
N=C(N)NCCC[C@H](N)C(=O)O [L-Arginine, L-arginine] | 5% | 44.66 mg/dL | 3% | 23% | −7% | −5% | 53.66*** % | −43% | 39.13 m | 30.38 | 90 s | 16.75*** | 35.13*** sec | 314.25*** m | 275.12 m | −13.63 | -54.87 s | 80% | 73% | 98% | HDL [1, 9]: 35.86 mg/dL; IL-2 (ng/L) [3, 10]: 42.04*** ng/L; IL-6 (pg/ml) [4, 10]: 351.39** pg/ml; TC [5]: 95.43 mg/dL; TH2(%) [8]: 40.44*** %; TH2 Change over control [%] [8]: 252%
NC(=O)NCCC[C@H](N)C(=O)O [L-Citrulline, L-citrulline] | 4% | 44.01 mg/dL | 1% | 25% | −7% | −6% | 59.71*** % | −36% | 38.5 m | 28.63 | 90.88 s | 17.00*** | 36.63*** sec | 312*** m | 273.5 m | −11.63 | -54.25 s | 78% | 48% | 97% | HDL [1, 9]: 35.63 mg/dL; IL-2 (ng/L) [3, 10]: 42.8*** ng/L; IL-6 [4, 10]: 349.52 pg/mL; TC [mg/dl] [5]: 94.26* mg/dl; TH2(%) [8]: 38.23*** %; TH2 Change over control [%] [8]: 234%
Cn1c(=O)[nH]c2ncn(C)c2c1=O [Paraxanthine, 1,7-dimethylxanthine] | 4% | 43.23 mg/dL | −1% | 23% | −8% | −8% | 65.68*** % | −30% | 41.13 m | 26.5 | 90.75 s | 13.38*** | 32.25*** sec | 325.75*** m | 284.62 m | −13.12 | -58.5 s | 92% | 67% | 105% | HDL [1, 9]: 36.36 mg/dL; IL-2 [3, 10]: 45.91 ng/L; IL-6 (pg/ml) [4, 10]: 340.6** pg/ml; TC [mg/dl] [5]: 91.66** mg/dl; TH2(%) [8]: 53.63*** %; TH2 Change over control [%] [8]: 368%
